Experimental data taken from PubChem BioAssay (NCI).
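Briefly, cells in 96-well plates were exposed to five compound concentrations for 48 h, and endpoints were estimated by linear interpolation. The concentration for full growth arrest is given as TGI.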

Tests used:
Assay in all cases: NCI anticancer screen, dose series, 48 h
M19-MEL melanoma = tested on: M19-MEL melanoma
DLD-1 colon = tested on: DLD-1 colon
NCI-H522 lung = tested on: NCI-H522 lung
HT29 colon = tested on: HT29 colon
MOLT-4 leukemia = tested on: MOLT-4 leukemia
SK-MEL-2 melanoma = tested on: SK-MEL-2 melanoma
UACC-257 melanoma = tested on: UACC-257 melanoma
IGROV1 ovarian = tested on: IGROV1 ovarian
SR leukemia = tested on: SR leukemia
SNB-75 CNS = tested on: SNB-75 CNS
SF-295 CNS = tested on: SF-295 CNS
OVCAR-5 ovarian = tested on: OVCAR-5 ovarian
HCC-2998 colon = tested on: HCC-2998 colon
UO-31 renal = tested on: UO-31 renal
SNB-19 CNS = tested on: SNB-19 CNS
EKVX NSCLC = tested on: EKVX NSCLC
SN12C renal = tested on: SN12C renal
KM12 colon = tested on: KM12 colon
LXFL 529 NSCLC = tested on: LXFL 529 NSCLC
RXF 393 renal = tested on: RXF 393 renal
OVCAR-8 ovarian = tested on: OVCAR-8 ovarian
HCT-15 colon = tested on: HCT-15 colon
A549 NSCLC = tested on: A549 NSCLC
CCRF-CEM leukemia = tested on: CCRF-CEM leukemia
TK-10 renal = tested on: TK-10 renal
HCT-116 colon = tested on: HCT-116 colon
UACC-62 melanoma = tested on: UACC-62 melanoma
DMS 114 small cell lung = tested on: DMS 114 small cell lung
LOX IMVI melanoma = tested on: LOX IMVI melanoma
ACHN renal = tested on: ACHN renal
HL-60(TB) leukemia = tested on: HL-60(TB) leukemia
MALME-3M melanoma = tested on: MALME-3M melanoma
DMS 273 small cell lung = tested on: DMS 273 small cell lung
OVCAR-3 ovarian = tested on: OVCAR-3 ovarian
KM20L2 colon = tested on: KM20L2 colon
COLO 205 colon = tested on: COLO 205 colon
SK-MEL-5 melanoma = tested on: SK-MEL-5 melanoma
HOP-18 NSCLC = tested on: HOP-18 NSCLC
786-0 renal = tested on: 786-0 renal
SW-620 colon = tested on: SW-620 colon
A498 renal = tested on: A498 renal
SF-268 CNS = tested on: SF-268 CNS
K-562 leukemia = tested on: K-562 leukemia
M14 melanoma = tested on: M14 melanoma
XF 498 CNS = tested on: XF 498 CNS
RPMI-8226 leukemia = tested on: RPMI-8226 leukemia
HOP-92 NSCLC = tested on: HOP-92 NSCLC
SF-539 CNS = tested on: SF-539 CNS
U251 CNS = tested on: U251 CNS
NCI-H23 lung = tested on: NCI-H23 lung
SNB-78 CNS = tested on: SNB-78 CNS
NCI-H460 lung = tested on: NCI-H460 lung
CAKI-1 renal = tested on: CAKI-1 renal
HOP-62 NSCLC = tested on: HOP-62 NSCLC
OVCAR-4 ovarian = tested on: OVCAR-4 ovarian
SK-OV-3 ovarian = tested on: SK-OV-3 ovarian

`COc1c(OC)c(N)c2cc(C)c(=O)c(C)cc2c1N` was tested, and the TGI (M19-MEL melanoma) was > 100 µM, the TGI (DLD-1 colon) was > 100 µM and the TGI (NCI-H522 lung) was > 100 µM. The TGI (HT29 colon) was > 100 µM, the TGI (MOLT-4 leukemia) was > 100 µM and the TGI (SK-MEL-2 melanoma) was > 100 µM. The TGI (UACC-257 melanoma) was > 100 µM, the TGI (IGROV1 ovarian) was > 100 µM and the TGI (SR leukemia) was 45.7 µM. For the same compound, the TGI (SNB-75 CNS) was > 100 µM, the TGI (SF-295 CNS) was > 100 µM and the TGI (OVCAR-5 ovarian) was > 100 µM. The TGI (HCC-2998 colon) was > 100 µM, the TGI (UO-31 renal) was > 100 µM and the TGI (SNB-19 CNS) was > 100 µM. The TGI (EKVX NSCLC) was > 100 µM, the TGI (SN12C renal) was > 100 µM and the TGI (KM12 colon) was > 100 µM. For the same compound, the TGI (LXFL 529 NSCLC) was > 100 µM, the TGI (RXF 393 renal) was > 100 µM and the TGI (OVCAR-8 ovarian) was > 100 µM. For the same compound, the TGI (HCT-15 colon) was > 100 µM, the TGI (A549 NSCLC) was > 100 µM and the TGI (CCRF-CEM leukemia) was > 100 µM. For the same compound, the TGI (TK-10 renal) was > 100 µM, the TGI (HCT-116 colon) was > 100 µM and the TGI (UACC-62 melanoma) was > 100 µM. For the same compound, the TGI (DMS 114 small cell lung) was > 100 µM, the TGI (LOX IMVI melanoma) was > 100 µM and the TGI (ACHN renal) was > 100 µM. For the same compound, the TGI (HL-60(TB) leukemia) was > 100 µM, the TGI (MALME-3M melanoma) was > 100 µM and the TGI (DMS 273 small cell lung) was > 100 µM. The TGI (OVCAR-3 ovarian) was > 100 µM, the TGI (KM20L2 colon) was > 100 µM and the TGI (COLO 205 colon) was > 100 µM. For the same compound, the TGI (SK-MEL-5 melanoma) was > 100 µM, the TGI (HOP-18 NSCLC) was > 100 µM and the TGI (786-0 renal) was > 100 µM. The TGI (SW-620 colon) was 35 µM, the TGI (A498 renal) was > 100 µM and the TGI (SF-268 CNS) was > 100 µM. The TGI (K-562 leukemia) was > 100 µM, the TGI (M14 melanoma) was > 100 µM and the TGI (XF 498 CNS) was > 100 µM. The TGI (RPMI-8226 leukemia) was > 100 µM, the TGI (HOP-92 NSCLC) was > 100 µM and the TGI (SF-539 CNS) was > 100 µM. For the same compound, the TGI (U251 CNS) was > 100 µM, the TGI (NCI-H23 lung) was > 100 µM and the TGI (SNB-78 CNS) was > 100 µM. The TGI (NCI-H460 lung) was > 100 µM, the TGI (CAKI-1 renal) was > 100 µM and the TGI (HOP-62 NSCLC) was > 100 µM. The TGI (OVCAR-4 ovarian) was > 100 µM and the TGI (SK-OV-3 ovarian) was > 100 µM.
